# Source: patent publication US8173592B1, “Method for a programmed controlled ovarian stimulation protocol” (Zentaris IVF GmbH, priority 1999, dated 2012)
# Non-standard residues stand in square brackets, D forms with d. Residues, ends and D or L forms follow the SMILES beside them. dPhe(4-Cl) = N[C@H](Cc1ccc(Cl)cc1)C(=O)O; d2Nal = N[C@H](Cc1ccc2ccccc2c1)C(=O)O; dCit = NC(=O)NCCC[C@@H](N)C(=O)O; d3Pal = N[C@H](Cc1cccnc1)C(=O)O
# Columns and labels:
# [1] = test system: women undergoing controlled ovarian stimulation; assay: Controlled ovarian stimulation (COS) cycles programmed by oral contraceptives, with Gonal-F stimulation and Cetrotide 0.25 mg daily, in patients; assay type: in vivo
# Description: A total of 30 patients, 15 from each German study center was enrolled for one treatment cycle. In the pre-treatment cycle, each patient received monophasic oral contraceptive(OC) pills containing 30 μg Estradiol in combination with levonogastrel. […] Cetrotide® 0.25 mg was given daily from the evening of stimulation day (s-day) 5/morning of s-day 6 until the day before hCG administration. On the basis of the ultrasound scans performed on s-day 9/10(s-day 9/10), and a calculation of follicular growth of 2 mm per day, hCG was administered to trigger ovulation (when >2 follicle's≧18 mm) were visualized.
# Safety end-points were indicated and severity of adverse events.
# [2] = test system: luteal regression / start of menses; conditions: 1 mg given in the luteal phase; previous use; cited from earlier work
# [3] = last day of Cetrotide administration, 17 patients
compound,measurement,setting,value
"CC(=O)N[C@H](Cc1ccc2ccccc2c1)C(=O)N[C@H](Cc1ccc(Cl)cc1)C(=O)N[C@H](Cc1cccnc1)C(=O)N[C@@H](CO)C(=O)N[C@@H](Cc1ccc(O)cc1)C(=O)N[C@H](CCCNC(N)=O)C(=O)N[C@@H](CC(C)C)C(=O)N[C@@H](CCCNC(=N)N)C(=O)N1CCC[C@H]1C(=O)N[C@H](C)C(N)=O [Cetrotide, cetrorelix] (Ac-[d2Nal][dPhe(4-Cl)][d3Pal]SY[dCit]LRP[dA]-NH2)",adverse events,[1]; 17 patients,no cases of OHSS nor adverse events
same,cases of OHSS,[1]; 17 patients,no cases
same,"difference between predicted and actual day of OPU, average",[1]; 17 patients,2 days
same,mean number of embryos transferred,[1]; 17 patients,2
same,mean number of oocytes retrieved,[1]; 17 patients,8.8
same,patients receiving hCG who had ovum pick up and embryo transfer,[1]; 17 patients,All 17 women who received hCG had ovum pick up and embryo transfer
same,pregnancy rate per attempt/cycle,[1]; 17 patients,41%
same,efficacy in OC programmed cycles,[1]; conclusion,appears to be effective
same,tolerability in OC programmed cycles,[1]; conclusion,well tolerated
same,mean number of follicles with diameter 15-17 mm,[1]; [3],4.9
same,mean number of follicles with diameter ≦14 mm,[1]; [3],2.7
same,mean number of follicles with diameter ≧18 mm,[1]; [3],2.7
same,mean number of follicles ≧18 mm on s-day 9/10,"[1]; preliminary results from 17 patients, stimulation day 9/10, Cetrotide 0.25 mg daily",2.2
same,start of menses after administration (luteal regression obtained),[2],2 to 4 days
